Reference: ChEMBL document CHEMBL4665712, “Phosphonium-ammonium-based di-cationic ionic liquids as antibacterial over the ESKAPE group” (Bioorg Med Chem Lett, 2020)

What was measured:
Escherichia coli = test: Antibacterial activity against Escherichia coli CIP 54.8; type: functional
Pseudomonas aeruginosa = test: Antibacterial activity against Pseudomonas aeruginosa 100720; type: functional
Acinetobacter baumannii = test: Antibacterial activity against Acinetobacter baumannii ATCC 19606; type: functional; settings: ATCC 19606 = CIP 70.34 = JCM 6841
Klebsiella pneumoniae = test: Antibacterial activity against Klebsiella pneumoniae CIP 82.91; type: functional
Staphylococcus aureus = test: Antibacterial activity against Staphylococcus aureus CIP 7625; type: functional
Enterococcus faecium = test: Antibacterial activity against Enterococcus faecium 20477; type: functional
HepG2 = test: Cytotoxicity against human HepG2 cells assessed as reduction in cell viability; type: cell-based

SMILES | MIC (Escherichia coli) | MIC (Pseudomonas aeruginosa) | MIC (Acinetobacter baumannii) | MIC (Klebsiella pneumoniae) | MIC (Staphylococcus aureus) | MIC (Enterococcus faecium) | Activity (HepG2)
CCCCCC[P+](CCCCCC)(CCCCCC)CCCCCC[P+](CCCC)(CCCC)CCCC.[Br-].[Br-] | > 64 µg/mL | > 64 µg/mL | > 64 µg/mL | > 64 µg/mL | 2 µg/mL | 8 µg/mL | 
CCCCCC[P+](CCCCCC)(CCCCCC)CCCCCCCCCC[P+](CCCCCC)(CCCCCC)CCCCCC.[Cl-].[Cl-] | 2 µg/mL | 4 µg/mL | 2 µg/mL | 2 µg/mL | 0.5 µg/mL | 0.5 µg/mL | 
CCCCCCCC[P+](CCCCCCCC)(CCCCCCCC)CCCCCC[P+](CCCCCC)(CCCCCC)CCCCCC.[Br-].[Br-] | 8 µg/mL | 8 µg/mL | 4 µg/mL | 4 µg/mL | 1 µg/mL | 2 µg/mL | 
CCCCCC[P+](CCCCCC)(CCCCCC)CCCCCCCCCC[P+](CCCCCC)(CCCCCC)CCCCCC.[I-].[I-] | 2 µg/mL | 2 µg/mL | 2 µg/mL | 2 µg/mL | 0.5 µg/mL | 0.5 µg/mL | 
CCCCCCCC[P+](CCCCCCCC)(CCCCCCCC)CCCCCC[P+](CCCCCCCC)(CCCCCCCC)CCCCCCCC.[Br-].[Br-] | 32 µg/mL | > 64 µg/mL | 8 µg/mL | 32 µg/mL | 1 µg/mL | 2 µg/mL | 
CCCC[P+](CCCC)(CCCC)CCCCCCCCCC[P+](CCCC)(CCCC)CCCC.[Br-].[Br-] | > 64 µg/mL | > 64 µg/mL | > 64 µg/mL | > 64 µg/mL | 16 µg/mL | > 64 µg/mL | Toxic
CCCC[P+](CCCC)(CCCC)CCCCCC[P+](CCCC)(CCCC)CCCC.[Br-].[Br-] | > 64 µg/mL | > 64 µg/mL | > 64 µg/mL | > 64 µg/mL | > 64 µg/mL | > 64 µg/mL | 
CCCCCCCC[P+](CCCCCCCC)(CCCCCCCC)CCCCCCCCCC[P+](CCCCCCCC)(CCCCCCCC)CCCCCCCC.[Br-].[Br-] | > 64 µg/mL | > 64 µg/mL | > 64 µg/mL | > 64 µg/mL | 16 µg/mL | 32 µg/mL | Toxic

Further lines, with some results ahead:

MIC (Escherichia coli) | MIC (Pseudomonas aeruginosa) | MIC (Acinetobacter baumannii) | MIC (Klebsiella pneumoniae) | MIC (Staphylococcus aureus) | MIC (Enterococcus faecium) | SMILES | Activity (HepG2)
4 µg/mL | 64 µg/mL | 8 µg/mL | 16 µg/mL | 0.5 µg/mL | 2 µg/mL | CCCCCC[P+](CCCCCC)(CCCCCC)CCCCCCCCCC[P+](CCCC)(CCCC)CCCC.[Br-].[Br-] | Toxic
2 µg/mL | 8 µg/mL | 16 µg/mL | 4 µg/mL | 0.5 µg/mL | 0.5 µg/mL | CCCCCC[N+](CCCCCC)(CCCCCC)CCCCCCCCCC[N+](CCCCCC)(CCCCCC)CCCCCC.[Br-].[Br-] | Toxic
32 µg/mL | > 64 µg/mL | > 64 µg/mL | > 64 µg/mL | 1 µg/mL | 1 µg/mL | CCCCCC[N+](CCCCCC)(CCCCCC)CCCCCC[N+](CCCCCC)(CCCCCC)CCCCCC.[Br-].[Br-] | 
2 µg/mL | 4 µg/mL | 4 µg/mL | 4 µg/mL | 0.5 µg/mL | 1 µg/mL | CCCCCC[P+](CCCCCC)(CCCCCC)CCCCCCCCCC[P+](CCCCCC)(CCCCCC)CCCCCC.[Br-].[Br-] | Toxic
16 µg/mL | > 64 µg/mL | > 64 µg/mL | 64 µg/mL | 1 µg/mL | 2 µg/mL | CCCCCC[N+](CCCCCC)(CCCCCC)CCCCCCCCCC[P+](CCCC)(CCCC)CCCC.[Br-].[Br-] | 
2 µg/mL | 8 µg/mL | 8 µg/mL | 2 µg/mL | 0.5 µg/mL | 1 µg/mL | CCCCCC[N+](CCCCCC)(CCCCCC)CCCCCCCCCC[P+](CCCCCC)(CCCCCC)CCCCCC.[Br-].[Br-] | Toxic
4 µg/mL | 8 µg/mL | 16 µg/mL | 8 µg/mL | 0.5 µg/mL | 0.5 µg/mL | CCCCCC[P+](CCCCCC)(CCCCCC)CCCCCC[P+](CCCCCC)(CCCCCC)CCCCCC.[Br-].[Br-] | 
> 64 µg/mL | > 64 µg/mL | > 64 µg/mL | > 64 µg/mL | 32 µg/mL | 64 µg/mL | CCCCCC[N+](CCCCCC)(CCCCCC)CCCCCC[P+](CCCC)(CCCC)CCCC.[Br-].[Br-] | 
